Where two headings read alike, the source gives them in different places. No end group written: not given here.
What was measured:
[1] = target: T1, aureolysin from S. aureus (Staphylococcus aureus, UniProt P81177); test: Stability in the presence of the protease aureolysin; type: in vitro ADME; settings: peptide:enzyme 200:1, 37 °C, RP-HPLC-MS
T1 construct: purchased
Description: Peptide stability was also assayed in commercially available Gram-positive, S. aureus protease, aureolysin. […] All the samples were then incubated at 37 °C at different incubation times. The reaction was quenched by acidifying with 5 µL of 0.1% formic acid. The samples were analyzed on MS coupled to RP-HPLC.

[2] = test system: E. coli MG1655 wild type and cyclotides-resistant mutants; test: MIC against cyclotide-resistant strains in buffer conditions; type: cell-based, Escherichia coli; design: unit not given here
Description: (§1) The LL-37 resistant mutants (DA22427 and DA23307) used in this study were derived from Salmonella enterica serovar Typhimurium DA6192, wild-type and cyclotides-resistant mutants (DA54114 and DA57107) were derived from E. coli MG1655 (wild type) and were kindly provided by Department of Medical Biochemistry and Microbiology, Uppsala University.
(§2) MIC measurements were performed in 20 mM sodium phosphate buffer (PBS), supplemented with 0.1% TSB in 96-well plates (round bottom, Nunc A/S, Roskilde, Denmark) in a total volume of 100 µL. The overnight cultures were diluted 5 × 10^5 CFU/mL in the same medium and 90 µL was transferred into the plates containing 10 µL of 2-fold diluted peptides. […] At least two independent experiments were performed with two technical replicates. In cyclotides, resistant mutant average MIC was reported.

[3] = test system: Bacillus subtilis CCUG 163BT; type: cell-based
Description: (§3) The three bacterial strains—Escherichia coli ATCC 25922, Pseudomonas aeruginosa ATCC 27853, and Staphylococcus aureus ATCC 29213—as well as the fungal strain Candida albicans ATCC 90028 were provided by the Department of Clinical Bacteriology, Lund University Hospital. Bacillus subtilis CCUG 163B^T and Bacillus cereus CCUG 7414^T were obtained from the Department of Molecular Sciences, Swedish University of Agricultural Sciences.
(§4) Antimicrobial activities of the peptides were evaluated using the two-step microdilution assay, which is designed for testing AMPs without activity-inhibiting components. Briefly, bacteria were grown to the mid-logarithmic phase at 37 °C in 3% (w/v) tryptic soy broth (TSB) (Merck KGaA, Darmstadt, Germany). The microbial culture was washed twice by centrifugation and resuspension in 10 mM Tris buffer (pH 7.4 at 37 °C, adjusted by HCl). The microbial suspension was quantified by OD600, diluted, and transferred to 96-well untreated polystyrene microplates prepared with 2-fold serial dilutions of the peptides using 50,000 bacteria per well (all dilutions in Tris buffer). These were incubated for 5 h at 37 °C, after which 5 µL of 20% (w/v) TSB was added to each well and the microplates were re-incubated for an additional 6–12 h (depending on the growth rate of each organism). All MICs presented are the medians from triplicate experiments performed independently.

[4] = test system: Bacillus cereus CCUG 7414T; type: cell-based
Excerpt: as §3
(§5) The standard broth microdilution assay was utilized to assess the MIC of designed peptides according to the guidelines of the Clinical and Laboratory Standards Institute (CLSI). Briefly, bacteria were grown in unbuffered Mueller–Hinton Broth (MHB, VWR International, Leuven, Belgium) as well as buffered (containing 50 mM NaHCO3) medium to the mid-logarithmic phase and were quantified by OD600. The bacterial suspension was diluted in the same medium to reach a final density of 1 × 10^6 colony-forming unit per milliliter (CFU/mL). A volume of 50 µL of the bacterial suspension was added to 96-well plates containing 50 µL of MHB in the absence (viability control) or the presence of the peptides at different concentrations (0.625–80 µM). […] MIC values were derived from 3 sets of independent experiments with different bacterial cultures.

[5] = test system: Pseudomonas aeruginosa ATCC 27853; type: cell-based; settings: ATCC 27853, 24 h
Excerpt: as §3, §5

[6] = test system: Escherichia coli ATCC 25922; type: cell-based; settings: ATCC 25922, 24 h
Excerpt: as §3, §5

[7] = test system: Bacillus subtilis CCUG 163BT; type: cell-based; remark: listed apart in the source
Excerpt: as §3, §5

[8] = test system: Salmonella enterica serovar Typhimurium DA6192 wild type and LL-37-resistant mutants (waaY, phoP); test: MIC against LL-37-resistant strains in buffer conditions; type: cell-based; design: unit not given here; settings: 20 mM sodium phosphate buffer with 0.1% TSB, 16 to 20 h, 37 °C
Description: as §1, §2

[9] = cited from earlier work
Description: One of the major limitations of AMPs for clinical use is their inactivation by both endogenous human proteases and proteases secreted from invading microbes. From our previous studies, it was evident that KR-12 and truncated analogs degrade within 10 min in diluted human serum. More recently, we have shown that the KR-12 cyclic dimer peptides were stable for up to 6 h in diluted human serum but the recovery of LL-37 was very low during the precipitation step of the assay, either due to binding of LL-37 with serum components or rapid degradation. We also compared the stability pro ...

[10] = test system: Bacillus cereus CCUG 7414T; type: cell-based; settings: CCUG 7414, 5 h
Description: as §3, §4

aureolysin = test: commercially available Gram-positive, S. aureus protease, aureolysin; settings: 37 °C, up to 24 h
[11] = test system: human red blood cells (RBCs); test: Hemolysis assay; type: cell-based; settings: human RBCs 0.25% in PBS pH 7.4, 80 μM peptide (highest test concentration), 1 h, 37 °C, absorbance 405 nm, relative to 1% Triton X-100
Description: The hemolytic assay was conducted by preparing a stock solution of 320 μM peptides in MilliQ water and serially diluted in PBS to give 100 μL test solutions in a 96-well U-bottom microtiter plate (Nunc). Human-type RBCs (red blood cells) were collected from the donor, washed with PBS (pH 7.4) three times, and centrifuged at 1500× g for 60 s. A pellet of RBCs was resuspended to 0.25% (v/v) solution in PBS (pH 7.4). A 100 μL 0.25% suspension of washed RBCs in PBS was dispensed into each well containing serially diluted peptide solutions and incubated at 37 °C for 1 h. The 96-well plate was centrifuged at 150× g for 5 min and aliquots of 100 μL were transferred to a 96-well U-bottomed microtiter plate (Falcon) and the absorbance was measured at 405 nm with an automatic Multiskan Ascent plate reader (Labsystems). The amount of hemolysis was calculated as the percentage of maximum lysis (1% Triton X-100 control) after adjusting for minimum lysis (PBS control).

[12] = test system: Bacillus cereus CCUG 7414T; type: cell-based; settings: B. cereus; TSB, Tryptic Soy broth (rich media, unbuffered)
[13] = test system: Bacillus subtilis CCUG 163BT; type: cell-based; settings: B. subtilis; TSB, Tryptic Soy broth (rich media, unbuffered)
[14] = E. coli DA54114 cyclotide-resistant mutant, sodium phosphate buffer with 0.1% TSB, average MIC
[15] = E. coli DA57107 cyclotide-resistant mutant, sodium phosphate buffer with 0.1% TSB, average MIC
[16] = E. coli WT (MG1655), 20 mM sodium phosphate buffer with 0.1% TSB, 16 to 20 h, 37 °C
[17] = S. typhimurium phoP LL-37-resistant mutant
[18] = S. typhimurium waaY LL-37-resistant mutant

T1 sequence (P81177 209-509): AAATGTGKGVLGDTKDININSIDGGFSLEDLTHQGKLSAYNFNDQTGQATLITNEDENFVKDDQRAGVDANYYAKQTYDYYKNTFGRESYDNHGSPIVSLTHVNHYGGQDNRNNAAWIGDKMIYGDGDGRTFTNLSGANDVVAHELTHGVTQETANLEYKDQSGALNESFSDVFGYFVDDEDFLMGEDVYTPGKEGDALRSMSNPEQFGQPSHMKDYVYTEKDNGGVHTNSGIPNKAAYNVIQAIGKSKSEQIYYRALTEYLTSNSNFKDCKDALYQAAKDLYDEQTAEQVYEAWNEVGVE

Molecule: Kalata B7
- time for which the peptide was stable in aureolysin (stable for up to) [1]: ≥ 24 h

Molecule: KRIVKRIKAFLR [KR-12 (Q5K,D9A)]
- MIC [2, 14]: 1
- MIC [2, 15]: 1
- MIC [2, 16]: 1
- MIC ([3]; CCUG 163, 5 h): 1.25 µM
- MIC ([4]; CCUG 7414, 24 h): > 80 µM
- MIC [5]: 10 µM
- MIC [6]: 10 µM
- MIC ([7]; CCUG 163, 24 h): > 80 µM
- MIC ([8]; S. typhimurium WT (DA6192)): 10
- MIC [8, 17]: 10
- MIC [8, 18]: 10

Molecule: KRIVQRIKDFLR [KR-12]
- MIC [2, 14]: 1
- MIC [2, 15]: 1
- MIC [2, 16]: 1
- time within which the peptide degrades in diluted human serum [9]: ≤ 10 min
- MIC [10]: 2.5 µM
- MIC ([3]; CCUG 163, 5 h): 5 µM
- MIC ([4]; CCUG 7414, 24 h): > 80 µM
- MIC [5]: >20 µM
- MIC [6]: > 20 µM
- MIC ([7]; CCUG 163, 24 h): > 80 µM
- MIC ([8]; S. typhimurium WT (DA6192)): 20
- MIC [8, 17]: 20
- MIC [8, 18]: 20

Molecule: LLGDFFRKSKEKIGKEFKRIVQRIKDFLRNLVPRTES
- cleaved bond (aureolysin): Leu31-Val32, first_seen, within the first 5 min

Molecule: CC[C@H](C)[C@H](NC(=O)[C@H](CCCCN)NC(=O)[C@H](CCC(=O)O)NC(=O)[C@H](CCCCN)NC(=O)[C@H](CO)NC(=O)[C@H](CCCCN)NC(=O)[C@H](CCCNC(=N)N)NC(=O)[C@H](Cc1ccccc1)NC(=O)[C@H](Cc1ccccc1)NC(=O)[C@H](CC(=O)O)NC(=O)CNC(=O)[C@H](CC(C)C)NC(=O)[C@@H](N)CC(C)C)C(=O)NCC(=O)N[C@@H](CCCCN)C(=O)N[C@@H](CCC(=O)O)C(=O)N[C@@H](Cc1ccccc1)C(=O)N[C@@H](CCCCN)C(=O)N[C@@H](CCCNC(=N)N)C(=O)N[C@H](C(=O)N[C@H](C(=O)N[C@@H](CCC(N)=O)C(=O)N[C@@H](CCCNC(=N)N)C(=O)N[C@H](C(=O)N[C@@H](CCCCN)C(=O)N[C@@H](CC(=O)O)C(=O)N[C@@H](Cc1ccccc1)C(=O)N[C@@H](CC(C)C)C(=O)N[C@@H](CCCNC(=N)N)C(=O)N[C@@H](CC(N)=O)C(=O)N[C@@H](CC(C)C)C(=O)N[C@H](C(=O)N1CCC[C@H]1C(=O)N[C@@H](CCCNC(=N)N)C(=O)N[C@H](C(=O)N[C@@H](CCC(=O)O)C(=O)N[C@@H](CO)C(=O)O)[C@@H](C)O)C(C)C)[C@@H](C)CC)C(C)C)[C@@H](C)CC [LL-37]
- time to hydrolysis of the Leu31-Val32 peptide bond by aureolysin [1]: ≤ 5 min
- recovery during the precipitation step of the serum stability assay ([9]; diluted human serum): very low
- hemolysis [11]: 19–23%
- MIC ([3]; B. subtilis, Control: two-step microdilution assay in Tris buffer 10 mM without salts): 1.25 µM
- MIC [12]: > 80 µM
- MIC [13]: > 80 µM
- MIC ([4]; B. cereus, MHB, Muller-Hinton broth (rich media, unbuffered)): > 80 µM
- MIC ([7]; B. subtilis, MHB, Muller-Hinton broth (rich media, unbuffered)): > 80 µM

From PMC9953701 (Biomedicines, 2023)
